Data as given in patent US5919755A, “Medical use of heme products” (Leiras OY, priority 1995, dated 1999).
“And” between values parts separate entries of the source, which are not always exact repeats. Equal entries are not always repeated. Where two headings read alike, the source gives them in different places.

Key:
[1] = cited from earlier work
[2] = cited from earlier work; remark: listed apart in the source
[3] = rat, intravenous dose of 3 mg/kg; cited from earlier work
[4] = system: human erythroid precursors; experiment: Induction of production of fetal hemoglobin in vitro (two-phase liquid culture, HPLC); type: cell-based
Source text: Cells grown in phase II in the presence of the indicated concentrations of heme arginate, were harvested on day 13 and their hemoglobin quantitated.
Cells grown in phase II in the presence of the indicated concentrations of heme arginate, were harvested on day 13 and their hemoglobin chromatographed and quantitated.
Cells grown in phase II in the absence or presence of heme arginate from day 0 and with the indicated concentrations of hydroxyurea from day 5, were harvested on day 13 and their hemoglobin chromatographed and quantitated.
3. Induction of production of fetal hemoglobin in vitro
Peripheral blood mononuclear cells obtained from normal volunteers and either sickle cell anemia or β-thalassemia patients were isolated by centrifugation on a gradient of Ficoll-Hypaque and seeded at a density of 5×10^6 cells/ml in alpha-minimal essential medium supplemented with 10% fetal calf serum (FCS), 1 μg/ml cyclosporin A, and 10% conditioned medium collected from cultures of the 5637 bladder-carcinoma cell line. The cultures were incubated at +37° C. in an atmosphere of 5% CO2 in air with extra humidity.
Following 7-day incubation in this phase I culture, the non-adherent cells were harvested, washed, and recultured in fresh medium composed of alpha-medium, 30% FCS, 1% deionized bovine serum albumin, 1×10^-5 M β-mercaptoethanol, 1.5 mM glutamine, 1×10^-6 M dexamethasone, and 1 U/ml human recombinant erythropoietin. Hemoglobin containing cells were determined by using the benzidine-HCl procedure.
The effect of heme arginate on fetal hemoglobin (Hb-F) production was determined by growing human erythroid precursors in the second phase of the above described liquide cell culture in the presence of 1 U/ml erythropoietin and different concentrations of heme arginate. The combination effect of heme arginate and hydroxyurea was investigated with 100 μM heme arginate added on day 0 and various concentrations of hydroxyurea added on day 5. Cells were harvested on day 13 and lysed, and their total hemoglobin and Hb-F content was analyzed by cation-exchange HPLC.

[5] = system: myelodysplastic syndromes; conditions: part of MDS patients; cited from earlier work
[6] = system: myelodysplastic syndrome; conditions: cited from earlier work
[7] = humans, intravenous dose of 3 mg/kg; cited from earlier work
[8] = system: polychromatic erythrocytes; experiment: Mouse micronucleus assay (micronucleated polychromatic erythrocytes in bone marrow smears); type: in vivo, mouse (CD-1 outbred, Swiss origin); conditions: for Incidence: number of micronucleated polychromatic erythrocytes per 1000 polychromatic erythrocytes examined: 36 mg/kg i.v.
Source text: 1. Mouse micronucleus assay
Micronuclei are seen in a variety of cells, but erythrocytes are chosen for examination since micronuclei are easily detected in this cell type.
A few hours after the last mitosis is completed, erythroblasts expel their nucleus. Young erythrocytes stain blue with Giemsa due to the presence of ribonucleic acid, which gradually disappears so that more mature erythrocytes stain pink with Giemsa. The young blue-staining cells are known as polychromatic erythrocytes and micronuclei are readily detected in this cell type.
The test animals were specific pathogen free CD-1 outbred mice of Swiss origin weighing between 22 and 24 grams and approximately 40 days old during the study. The mice were acclimatized for four days and after that dosed by intravenous injection with a volume of 10 ml/kg body weight either with saline solution (vehicle control) or with heme arginate solution at the dose 36 mg hemin/kg body weight. Five male and five female mice were sacrificed by cervical dislocation 24, 48, and 72 hours after dosing. A direct bone marrow smear was made from femur onto a slide containing a drop of calf serum. The smears were fixed in methanol, air dried, and stained for 10 minutes in 10% Giemsa solution. The stained smears were examined (under code) by light microscopy to determine the incidence of micronucleated cells per 1000 polychromatic erythrocytes per animal.

[9] = system: plasma proteins; conditions: after infusion into the blood stream; cited from earlier work
[10] = system: blasts in bone marrow; experiment: Proportion of blasts in the bone marrow of myelodysplastic patients; type: in vivo, human; conditions: for Blasts in bone marrow, after / Myeloblasts in bone marrow, after / Sum of blasts and myeloblasts in bone marrow, after: one week after last of 15 infusions, 3 mg hemin/kg i.v.; for Myelodysplastic syndrome subtype, after: after treatment
Experimental: 2. Proportion of blasts in the bone marrow of myelodysplastic patients
In a clinical study patients with myelodysplastic syndromes were treated with intravenous infusions of heme arginate at the dose level 3 mg hemin/kg. The infusions were given first on four consecutive days and after that once a week for eleven weeks. Thus totally 15 infusions were given to each patient.
Bone marrow sample was collected from each patient before start of the heme arginate infusions and one week after the last infusion. Proportion of blasts and myeloblasts were determined in the bone marrow samples by using standard hematological laboratory procedures. The definition of "a blast" as used in the classification of myelodysplastic syndromes includes both blasts and myeloblasts (9).

[11] = system: myelodysplastic syndrome; conditions: cited from earlier work; remark: listed apart in the source
[12] = of 26 patients, 2-3 mg hemin/kg
[13] = Table 3, one line per patient, baseline before treatment
[14] = Table 4, patients not considered good responders, one line per patient, baseline before treatment
[15] = Table 4, patients not considered good responders, one line per patient

C=CC1=C(C)c2cc3[n-]c(cc4[n-]c(cc5nc(cc1n2)C(C)=C5C=C)c(C)c4CCC(=O)O)c(CCC(=O)O)c3C.O.[Fe+2] [hematin]
adverse effects ([1]; in vivo, iv): often complicated by adverse effects, including phlebitis at the infusion site and disturbances in hemostasis

Hemin
solubility [2]: poorly soluble

heme arginate
AUC [3]: 64 µg/mL/h | amount of total hemoglobin produced ([4]; FIG. 1, phase II culture, harvested day 13, erythroid precursors from patients with hemoglobinopathies): increases the amount of total hemoglobin | proportion of fetal hemoglobin (Hb-F) ([4]; FIG. 2, phase II culture, harvested day 13, heme arginate alone): increases the proportion of fetal hemoglobin | effect of heme arginate on proportion of fetal hemoglobin (Hb-F) in presence of hydroxyurea ([4]; FIG. 3, heme arginate 100 μM from day 0, hydroxyurea 25-200 μM from day 5, harvested day 13): potentiated by the presence of hydroxyurea | solubility [2]: increases the aqueous solubility | adverse effects ([1]; intravenous use, incl. phlebitis at infusion site and disturbances in hemostasis): lack of serious adverse effects | adverse effects ([1]; intravenous use, incl. phlebitis at infusion site and disturbances in hemostasis, listed as Heme arginate): seldom produces these effects and therefore is better tolerated | effect on blood cell counts [5]: clinically effective in part of MDS patients by increasing the blood cell counts | patients with MDS progression ([6]; of 26 patients (13)): 4/26 | patients showing improvement in cytopenias during the therapy [6, 12]: Six | patients with long-lasting good response with normal or close to normal blood cell counts [6, 12]: three | duration of long-lasting good response ([6]; single patients, 2-3 mg hemin/kg): > 11 months and > 12 months and 25 months | AUC [7]: 998 µg/mL/h | Incidence: number of micronucleated polychromatic erythrocytes per 1000 polychromatic erythrocytes examined ([8]; killed 24 hours after dosing, vehicle control 1.2): 1.1 per 1000 polychromatic erythrocytes | Incidence: number of micronucleated polychromatic erythrocytes per 1000 polychromatic erythrocytes examined ([8]; killed 48 hours after dosing, vehicle control 1.0): 0.5 per 1000 polychromatic erythrocytes | Incidence: number of micronucleated polychromatic erythrocytes per 1000 polychromatic erythrocytes examined ([8]; killed 72 hours after dosing, vehicle control 1.0): 0.4 per 1000 polychromatic erythrocytes | effect on incidence of mutagenesis (mouse micronucleus test) ([8]; in vivo, 36 mg/kg): able to decrease incidence of mutagenesis | plasma protein binding [9]: quickly bound to the plasma proteins in monomeric form | Blasts in bone marrow, before ([10]; Table 3, RAEB or RAEB-t patients, one line per patient, baseline before treatment): 4% and 3% and 6% and 15% and 10% | Blasts in bone marrow, after ([10]; Table 3, RAEB or RAEB-t patients, one line per patient): 0% and 1% and 4% and 6% | Myelodysplastic syndrome subtype, after ([10]; Table 3, one line per patient): RARS and RAEB | Myeloblasts in bone marrow, before [10, 13]: 6% and 8% and 4% and 3% and 20% | Myelodysplastic syndrome subtype, before [10, 13]: RAEB and RAEB-t | Myeloblasts in bone marrow, after ([10]; Table 3, one line per patient): 4% and 3% | Sum of blasts and myeloblasts in bone marrow, after ([10]; Table 3 and text, one line per patient): 4% and 8% and 10% | patients with a clear decrease of blasts ([10]; Table 3 patients, of 21): 5/21 | Blasts in bone marrow, before ([10]; Table 4, RARS or RAEB patients not considered good responders, one line per patient, baseline before treatment): 5 and 8 and 2 and 3 and 1 and 4 and 0 | Myelodysplastic syndrome subtype, after ([10]; Table 4, one line per patient): RAEB and RARS | Myelodysplastic syndrome subtype, before ([10]; Table 4, one line per patient, baseline before treatment): RAEB and RARS | Myeloblasts in bone marrow, before [10, 14]: 4 and 2 and 8 and 9 and 3 and 10 and 5 and 1 | Sum of blasts and myeloblasts in bone marrow, before [10, 14]: 9 and 12 and 4 and 5 and 7 and 14 and 13 and 3 and 1 and 10 | Blasts in bone marrow, after [10, 15]: 5 and 8 and 0 and 2 and 3 and 1 and 4 | Myeloblasts in bone marrow, after [10, 15]: 3 and 2 and 1 and 7 and 6 and 10 and 9 and 5 and 0 | Sum of blasts and myeloblasts in bone marrow, after [10, 15]: 8 and 11 and 2 and 3 and 7 and 13 and 4 and 12 and 6 and 1 and 9 | patients with a smaller decrease of blasts ([10]; Table 4 patients, of 21): 12/21 | patients with no effect on blasts ([10]; Table 4 patients, of 21): 1/21 | patients with slight increase of blasts ([10]; Table 4 patients, of 21): 3/21 | patients with some decrease of blasts, totally ([10]; all patients, of 21): 17/21 | effect on proportion of blasts in bone marrow ([10]; some MDS patients): able to decrease proportion of blasts | patients with MDS progression ([11]; of 14 patients (15)): 4/14 | patients with decrease of blasts ([11]; of 14 patients (15), considered to be an occasional event): 1/14 | patients with long-lasting improvement in hemoglobin values and/or platelet counts ([11]; of 14 patients, 3 mg hemin/kg): Three | duration of long-lasting improvement in hemoglobin values and/or platelet counts ([11]; single patients, 3 mg hemin/kg): 5 months and 26 months and > 41 months
